Assay results taken from US8980934B2, “Kinase inhibitors and method of treating cancer with same” (University Health Network, priority 2012, dated 2015).

Experiments:
Format in all cases: cell-based
[1] = test system: HCT116 colon cancer cells; assay: Cancer cell growth inhibition, Sulforhodamine B assay; conditions: Homo sapiens, HCT-116, 120 h; HCT116, 5 days culture, SRB; read-out: Cancer Cell Line GI50 Range HCT116
Method: (§1) Breast cancer cells (MDA-MB-231), colon cancer cells (HCT116) and ovarian cancer cells (PA-1) were seeded (1000 to 4000 in 80 μl per well depending on the cell growth rate) into 96 well plates 24 hours before compound overlay. Compounds were prepared as 10 mM stock solutions in 100% DMSO which were diluted with DMEM (Dulbecco's Modified Eagle's Medium) cell growth Medium (Invitrogen, Burlington, ON, Canada) containing 10% FBS (Fetal Bovine Serum) to concentrations ranging from 50 nM to 250 μM. Aliquots (20 μl) from each concentration were overlaid to 80 μl of the pre-seeded cells in the 96 well plates to make final concentrations of 10 nM to 50 μM. The cells were cultured for 5 days before the Sulforhodamine B assay (SRB) was performed to determine the compound's cell growth inhibition activity.
(§2) Sulforhodamine B (purchased from Sigma, Oakville, ON, Canada) is a water-soluble dye that binds to the basic amino acids of the cellular proteins. Thus, colorimetric measurement of the bound dye provides an estimate of the total protein mass that is related to the cell number. the cells are fixed in situ by gently aspirating off the culture media and adding 50 μl ice cold 10% Trichloroacetic Acid (TCA) per well and incubate at 4° C. for 30-60 min. The plates are washed with H2O five times and allowed to air dry for 5 min. Addition of 50 μl 0.4% (w/v) SRB solution in 1% (v/v) acetic acid to each well and incubatation for 30 min at RT completes the staining reaction. Following staining, plates are washed four times with 1% acetic acid to remove unbound dye and then allowed to air dry for 5 min. The stain is solubilized with 100 μl of 10 mM Tris pH 10.5 per well. Absorbance is read at 570 nm.
(§3) The percentage (%) of relative growth inhibition was calculated by comparing to DMSO treated only cells (100%). GI50's were determined for compounds with cytotoxic activity. The GI50 was calculated using GraphPad PRISM software (GraphPad Software, Inc., San Diego, Calif., USA). GI50 (growth inhibition) is the compound concentration that causes 50% inhibition of cell growth.
(§4) In Table 1 below, GI50 value ranges for several compound examples against breast cancer cell lines (MDA-MB-231), colon cancer cell lines (HCT116) and ovarian cancer cell lines (PA-1) are given. […] The GI50 ranges are indicated as “A,” “B,” and “C,” for values less than or equal to 0.1 μM; those greater than 0.1 μM and less than or equal to 0.5 μM; and those greater than 0.5 μM, respectively.

[2] = test system: MDA-MB-231 breast cancer cells; assay: as above; conditions: Homo sapiens, 120 h; MDA-MB-231, 5 days culture, SRB; read-out: Cancer Cell Line GI50 Range MDA-MB-231
Method: as §1, §2, §3, §4

[3] = test system: PA-1 ovarian cancer cells; assay: as above; conditions: 120 h; PA-1, 5 days culture, SRB; read-out: Cancer Cell Line GI50 Range PA-1
Method: as §1, §2, §3, §4

[4] = test system: colon 12 tumor initiating cells; assay: Colon tumor-initiating cell growth inhibition, Alamar Blue assay; conditions: 216 h, colon TICs, 9 days culture, read-out: Tumor Initiating Cell Line GI50 Range colon 12
Source text: (§5) Non-tissue or tissure cultured treated T-75 flask and 96-well plates were purchased from VWR. Vitamin B-27 supplement, MEM NEAA (minimum essential medium non essential amino acids), sodium pyruvate, L-glutamine, N2 supplement, penicillin-streptomycin and fungizone/amphotericin B were obtained from Invitrogen. Lipid mixture, heparin and EGF were purchased from Sigma; bFGF from BD Biosciences. Colon tumor initiating cells (TICs) were routinely maintained using non-tissue cultured treated T-75 flasks in DMEM:F12 medium containing 0.2XB-27 supplement, 4 ug/ml heparin, 1XMEM NEAA, 1Xsodium pyruvate, 1 mM glutamine, 10 pg/ul bFGF, 20 pg/ul EGF, 1×N2 supplement, lipid mixture, penicillin-streptomycin and fungizone/amphotericin B. Ovarian TICs were routinely maintained using tissue cultured treated T-75 flasks in DMEM:F12 medium containing 1XB-27 supplement, 4 ug/ml heparin, 20 pg/ul bFGF, 20 pg/ul EGF and penicillin-streptomycin.
(§6) Compounds described herein were dissolved in DMSO and further diluted in cell culture medium for GI50 determination. Colon TICs were trypsinized and seeded into non-tissue cultured treated 96-well plates with 4,000 cells/well. After 24 h, compound was added into the cell culture at different concentrations, and the final concentration of DMSO was adjusted to 0.1%. Cells were then cultured at 37° C. for 9 days. Ovarian TICs were trypsinized and seeded into tissue cultured treated 96-well plates with 1,000 cells/well. After 24 h, compound was added into the cell culture at different concentrations, and the final concentration of DMSO was adjusted to 0.1%. Cells were then cultured at 37° C. for 6 days. Cell viability was assessed by Alamar Blue assay: 10 ul of Alamar Blue was added into each well. After 4 hours incubation at 37° C., fluorescence was recorded at excitation 544 and emission 590. GI50 (Growth inhibition) was calculated using GraphPad Prism 4.0 software. Cell growth inhibition data for compounds described herein is tabulated below (Table 2). The GI50 ranges are indicated as “A,” and “B”, for values less than or equal to 0.1 μM: those greater than 0.1 μM and less than or equal to 0.5 μM, respectively.

[5] = test system: ovarian 2393A tumor initiating cells; assay: Ovarian tumor-initiating cell growth inhibition, Alamar Blue assay; conditions: 144 h, ovarian TICs, 6 days culture, read-out: Tumor Initiating Cell Line GI50 Range ovarian 2393A
Source text: as §5, §6

GI50 [1]	GI50 [2]	GI50 [3]	GI50 [4]	GI50 [5]	Compound
≤ 100 nM	≤ 100 nM	≤ 100 nM	≤ 100 nM	≤ 100 nM	CC(C)[C@H](NC(=O)c1ccc2[nH]nc(-c3ccc(N4CC5(COC5)C4)cc3)c2c1)c1ccccc1Cl [Example A12, 3-(4-(2-Oxa-6-azaspiro[3.3]heptan-6-yl)phenyl)-N-((S)-1-(2-chlorophenyl)-2-methylpropyl)-1H-indazole-5-carboxamide]
≤ 100 nM	100 to 500 nM	≤ 100 nM	≤ 100 nM	100 to 500 nM	Cc1ccccc1C(NC(=O)c1ccc2[nH]nc(-c3ccc(N4CC5(COC5)C4)cc3)c2c1)C1CC1 (stereo not drawn) [Example A3, 3-(4-(2-Oxa-6-azaspiro[3.3]heptan-6-yl)phenyl)-N-(cyclopropyl(o-tolyl)methyl)-1H-indazole-5-carboxamide]
≤ 100 nM	100 to 500 nM	≤ 100 nM	100 to 500 nM	100 to 500 nM	O=C(NC(c1ccccn1)C1CC1)c1ccc2[nH]nc(-c3ccc(N4CCC5(CC4)COC5)cc3)c2c1 (stereo not drawn) [Example A15, 3-(4-(2-Oxa-7-azaspiro[3.5]nonan-7-yl)phenyl)-N-(cyclopropyl(pyridin-2-yl)methyl)-1H-indazole-5-carboxamide]
